Measured values taken from ChEMBL document CHEMBL4673232, “Optimization of a series of potent, selective and orally bioavailable SYK inhibitors” (Bioorg Med Chem Lett, 2020).
Values after ≈ are worked out from the molar mass of the structure shown.

Experiments:
[1] = Metabolic stability in human liver microsomes assessed as intrinsic clearance; type: ADME, Microsome; conditions: read-out: CLH
[2] = Lipophilicity, logD of compound; type: physicochemical; conditions: octanol/water
[3] = Metabolic stability in rat hepatocyte assessed as intrinsic clearance; type: ADME, tissue-based; conditions: hepatocytes
[4] = Dissociation constant, pKa of the compound; type: physicochemical
[5] = Clearance in CD-1 mouse at 0.5 mg/kg, iv or 1 mg/kg, po; type: ADME, organism-based; conditions: in vivo
[6] = Metabolic stability in human hepatocyte assessed as intrinsic clearance; type: ADME, tissue-based; conditions: hepatocytes
[7] = Volume of distribution at steady state in Han Wistar rat at 0.5 mg/kg, iv or 1 mg/kg, po; type: ADME, organism-based; conditions: in vivo, read-out: Vdss
[8] = Clearance for unbound fraction in CD-1 mouse at 0.5 mg/kg, iv or 1 mg/kg, po; type: ADME, organism-based; conditions: in vivo
[9] = Solubility of compound; type: physicochemical
[10] = mouse, hepatocytes
[11] = Oral bioavailability in Han Wistar rat at 1 mg/kg; type: ADME, organism-based; conditions: in vivo
[12] = Clearance in Han Wistar rat at 0.5 mg/kg, iv or 1 mg/kg, po; type: ADME, organism-based; conditions: in vivo
[13] = Volume of distribution at steady state in CD-1 mouse at 0.5 mg/kg, iv or 1 mg/kg, po; type: ADME, organism-based; conditions: in vivo, read-out: Vdss
[14] = Oral bioavailability in CD-1 mouse at 1 mg/kg; type: ADME, organism-based; conditions: in vivo
[15] = Apparent permeability of the compound across apical to basolateral side in human Caco-2 cells at pH 6.5; type: ADME, cell-based; conditions: Caco-2, pH 6.5
[16] = Unbound clearance in Han Wistar rat at 0.5 mg/kg, iv or 1 mg/kg, po; type: ADME, organism-based; conditions: in vivo

Row | microsomal CLint [1] | logD [2] | CLH [3] | SMILES | further results
1 | 84 µL/min/mg | 2.8 | 34 µL/min | CNC(=O)c1nn(C)c2ccc(Nc3nccc(-n4cc(CN(C)C)c(F)n4)n3)cc12 | 
2 | 9 µL/min/mg | 1.4 | 34 µL/min | CNC(=O)c1ncn2ccc(Nc3nccc(-n4cc(CN(C)C)cn4)n3)cc12 | 
3 | 32 µL/min/mg | 2.3 | 49 µL/min | CNC(=O)c1nn(C)c2c(C)cc(Nc3nccc(-n4cc(CN(C)C)cn4)n3)cc12 | 
4 | 43 µL/min/mg | 1.7 | 33 µL/min | CN(C)Cc1cnn(-c2ccnc(Nc3ccc4c(c3)c(C(=O)N(C)C)nn4C)n2)c1 | 
5 | 106 µL/min/mg | 2.6 | 64 µL/min | CNC(=O)c1nn(C)c2c(C)cc(Nc3nccc(-c4cc(CN(C)C)n(C)n4)n3)cc12 | 
6 | 52 µL/min/mg | 1.8 | 31 µL/min | CNC(=O)c1nn(C)c2ccc(Nc3nccc(-n4cc(CN(C)C)cn4)n3)cc12 | CLH [6]: 21 µL/min; Vd [7]: 1.1 L/kg; solubility [9]: 909 µM (≈ 369 µg/mL); bioavailability [11]: 60%; clearance [12]: 8 mL/min/kg; CL free [16]: 250 mL/min/kg

More lines, now with the values behind:

Row | SMILES | microsomal CLint [1] | logD [2] | CLH [3] | further results
7 | CNC(=O)c1nn(C)c2ccc(Nc3nccc(-c4cc(CN(C)C)n(C)n4)n3)cc12 | 93 µL/min/mg | 2.2 | 51 µL/min | pKa [4]: 7.3
8 | Cc1nnc(-c2nc(C)n3ccc(Nc4nccc(-c5cc(CN(C)C)n(C)n5)n4)cc23)o1 | 40 µL/min/mg | 2.4 | 12 µL/min | clearance [5]: 255 mL/min/kg; CLH [6]: 1.9 µL/min; Vd [7]: 11 L/kg; CL free [8]: 955 mL/min/kg; solubility [9]: 97 µM (≈ 43.1 µg/mL); CLH [10]: 44 µL/min; bioavailability [11]: 5%; clearance [12]: 189 mL/min/kg; Vd [13]: 8 L/kg; bioavailability [14]: 7%; Papp A→B [15]: 6.5 ×10⁻⁶ cm/s; pKa [4]: 7.2; CL free [16]: 787 mL/min/kg
9 | CNC(=O)c1nn(C)c2ccc(Nc3nccc(-n4cc(CN(C)C)c(OC)n4)n3)cc12 | 103 µL/min/mg | 2.3 | 21 µL/min | 
10 | CNC(=O)c1nc(C)n2ccc(Nc3nccc(-n4cc([C@@H]5C[C@@H](F)CN5C)cn4)n3)cc12 | 278 µL/min/mg |  | 31 µL/min | 
11 | COC(=O)c1nn(C)c2c(C)cc(Nc3nccc(-c4cc(CN(C)C)n(C)n4)n3)cc12 |  | 3.2 | 186 µL/min | 
12 | CNC(=O)c1nn(C)c2ccc(Nc3nccc(-n4cc(CN5CC(O)C5)c(C)n4)n3)cc12 | 78 µL/min/mg | 1.9 | 19 µL/min | pKa [4]: 8.6
13 | Cc1nn(-c2ccnc(Nc3ccc4c(c3)c(Cl)c(C)n4C)n2)cc1CN1CC(O)C1 | 49 µL/min/mg | 3.9 | 66 µL/min | 
14 | CNC(=O)c1nc(C)n2ccc(Nc3nccc(-n4cc([C@@H]5C[C@H](O)CN5C)cn4)n3)cc12 | 110 µL/min/mg | 2 | 17 µL/min | pKa [4]: 7.9
15 | Cc1nnc(-c2nn(C)c3ccc(Nc4nccc(-c5cc(CN(C)C)n(C)n5)n4)cc23)o1 |  | 2.6 | 14 µL/min | 
